Measured values: PMC6010047, “Design, synthesis and biological evaluation of novel hydroxy-phenyl-1H-benzimidazoles as radical scavengers and UV-protective agents” (Journal of Enzyme Inhibition and Medicinal Chemistry, 2017)
Like-named read-outs stand apart in the source and are kept apart here.

Assays:
[1] = 1,1-Diphenyl-2-picryl-hydrazyl radical (DPPH) assay; format: biochemical; settings: Trolox equivalents; mean ± SE of three experiments
Experimental: To 1.5 mL DPPH methanolic solution (0.5 mM) was added 0.750 mL of sample solution proper diluted. Samples absorbance measurements were evaluated with a UV-VIS spectrophotometer (Thermo Spectronic Helios γ, Cambridge, UK) at fixed wavelength of 517 nm. Blank sample was prepared adding methanol to DPPH solution and Trolox was used as standard reference to achieve a calibration curve. The radical-scavenging activity is expressed as inhibition ratio of initial concentration of DPPH radical and is calculated according to the formula: Inhibition percentage (Ip) = [(AB-As)/AB]·100; where AB and As are, respectively, the absorbance values of blank reaction and of the tested sample[25].

[2] = Ferric reducing antioxidant of potency (FRAP) assay; format: biochemical; settings: Trolox equivalents; mean ± SE of three experiments
Experimental: The ferric reducing ability of each standard solution was measured according to a modified protocol described by Guihua et al.[26]. The reagent for analysis was freshly prepared by mixing the following solutions in the reported ratio 10/1/1 (v:v:v) (i) 0.1 M acetate buffer pH 3.6, (ii) TPTZ (2,4,6-Tri(2-pyridyl)-s-triazine) 10 mmol/L in 40 mmol/HCl, (iii) ferric chloride 20 mmol/L. To a 1.9 mL of reagent were added 0.1 mL of sample proper diluted or solvent when blank was performed. Readings at fixed wavelength of the absorption maximum (593 nm) were done after 30 min, using a UV-VIS spectrophotometer; it was evaluated the absorbance increase of sample solution against the absorbance of blank reaction as parameter to calculate the antioxidant activity. The antioxidant activity is given as Trolox activity since this standard was used to perform the calibration curves.

[3] = UV spectra: λmax and molar extinction coefficient; format: physicochemical
Experimental: Sun protection factor (SPF) is related to the UV absorption of the substances, so before including the molecules in cosmetic formulations we evaluated the wavelength of maximum absorption (λmax) and the molar extinction coefficient (ɛ) of each molecule in aqueous solution at pH 7. The UV spectra were recorded between 270 and 420 nm (20 nm higher and lower then UVA and UVB range) to verify the spectrum profile of the molecules within UVA and UVB region. UV spectrum of PBSA is an UVB filter and presents a λmax of 302 nm; after this peak, the absorbance fades going to higher wavelength until almost zero around 325 nm, and then, it provides no absorption in the UVA region. Molecules spectra overlapped for category according to the substituent in position 5 of the benzimidazole ring are shown in Figures 1, 2 and 3; PBSA spectrum is presented in all figures for comparison.
From the spectra appears that the lambda maxima (Table 2) of the new molecules shifted toward higher wavelength and in general the range of absorption curve was wider than PBSA. Within a group of molecules, the batochromic shift was more marked for the molecules that have a hydroxyl moiety in position 2 of the phenyl ring (4, 5, 6, 9, 10, 11, 13 and […]); the effect of ortho substituted is known to produce this shift toward higher wavelength. Increasing the number of auxochrome groups on phenyl ring an increment in the absorption range occurred, compounds with three hydroxyl on the phenyl ring (6, 11, 15) had the broadest spectrum and their lambda maxima shifted at the highest wavelength compared to the other compounds. The absorption spectrum of molecules with the same number and position of hydroxyl seemed only slightly influenced by the substituent in position 5 of the benzimidazole ring. After having established the lambda maxima for every compound, solutions at different concentrations were prepared to calculate the molar extinction coefficient by means of linear regression and applying Lambert–Beer equation (Table 2).

[4] = Cytotoxicity, MTT test, 72 h; settings: human, NCTC-2544 keratinocytes (immortalized, nontumorigenic)
Experimental: (§1) An immortalized, nontumorigenic cell line of human keratinocytes (NCTC-2544) was grown in a DMEM medium (Sigma-Aldrich Milan, Italy), supplemented with 115 units/mL of penicillin G, 115 μg/mL streptomycin, and 10% fetal calf serum (Invitrogen, Milan, Italy). Individual wells of a 96-well tissue culture microtiter plates (Falcon, Becton–Dickinson) were inoculated with 100 μL of complete medium containing 5 × 10^3 NCTC-2544. The plates were incubated at 37 °C in a humidified (5% CO2) incubator for 18 h prior to the experiments.
After medium removal, 100 μL of the drug solution, dissolved in DMSO and diluted in DMEM medium, was added to each well, incubated at 37 °C for 72 h. Final DMSO concentration never exceeded 0.5%. Cell viability was assayed by the MTT (3–(4,5-dimethylthiazol-2-yl)-2,5 diphenyl tetrazolium bromide) test as previously described by Mosmann[27].
The tests were conducted using a specific cell line of human keratinocytes (NCTC-2544). To assess cell viability, in the presence of the study compounds, before and after the irradiation, the MTT assay was performed[27]. The cytotoxicity was checked after 72 h from the incubation of the keratinocytes with compounds; moreover, the same experiments were performed in the presence of the parent PBSA.

[5] = tested on: NCTC-2544 cells; assay: Phototoxicity / cellular photoprotection, UVA or UVB irradiation, MTT test; settings: Homo sapiens, NCTC-2544, light or radiation study, 48 h
Experimental: as §1
Two HPW 125 Philips lamps, mainly emitting at 365 nm, were used for UVA irradiation experiments. The spectral irradiance of the source was 4.0 mWcm^−^2 as measured at the sample level by a Cole-Parmer Instrument Company radiometer (Niles, IL) equipped with a 365-CX sensor. One or two PL-S 9 W/12 Philips lamps (280–370 nm; peak at 315 nm) were used for UVB irradiation experiments. To restrict the incident radiation to the range 305–370 nm, a glass filter (Schott SWG-305) was used. Total energy was detected by the same equipped with a sensor (model CX-312).
After medium removal, 100 μL of the drug solution, dissolved in DMSO and diluted with Hank’s Balanced Salt Solution (HBSS pH =7.2), was added to each well, incubated at 37 °C for 30 min, and then irradiated (20 J/cm^2 for UVA and 0.5 and 1 J/cm^2 for UVB). After irradiation, the solution was replaced with the medium and the plates were further incubated for 48 h. Cell viability was assayed by the MTT [(3–(4,5-dimethylthiazol-2-yl)-2,5 diphenyl tetrazolium bromide)] test as previously described by Mosmann[27].
Molecules were verified for their photocytotoxicity in the same cell line; the cells were treated with 50 μM solutions of compound and after 30 min were irradiated with 20 J/cm^2 UVA or with UVB at two energy amounts: 0.5 J/cm^2 and 1 J/cm^2 UVB. […] After irradiation, the solution was replaced with growth medium and the cells were further incubated for 48 h, and then, cell viability was assessed by MTT assay. […] The phototoxicity of tested molecules was compared with the ratio of cell survival of irradiated keratinocytes without substance (IC = irradiated control).

- λ max ([3]; aqueous solution at pH 7): 306 nm
- ɛ (molar extinction coefficient) ([3]; aqueous solution at pH 7, at λ max, linear regression Lambert–Beer): 24 000
SMILES: Oc1ccc(-c2nc3ccccc3[nH]2)cc1 [Compound 7, 2-(4-Hydroxy-phenyl)-1H-benzimidazole]
- DPPH [1]: 1.67 ± 0.08 μmolTrolox/mmol
- FRAP [2]: 21.94 ± 0.12 μmolTrolox/mmol
- IC50 at 72 h [4]: 26.1 ± 2.4 µM
- viability at 20 µM ([5]; read-out: % Cell survival UVA 20 J/cm^2): 72.8 ± 2.9%
- viability at 20 µM ([5]; read-out: % Cell survival UVB 0.5 J/cm^2): 74.2 ± 1.3%
- viability at 20 µM ([5]; read-out: % Cell survival UVB 1 J/cm^2): 44 ± 4.1%
